Test results taken from EP0003415A2, “Beta-Lactam compounds, processes for their preparation,compositions containing them and intermediates of use in their preparation” (GLAXO GROUP LIMITED, priority 1978, dated 1979).
In brackets after ≈: the same amount, converted by molar mass.

Columns and labels:
Test in all cases: Determination of Minimum Inhibitory Concentrations (MIC), agar dilution
Format in all cases: cell-based
E. cloacae 1051E = settings: Enterobacter cloacae, clinical isolate, Oxoid No.1 Nutrient agar, approximately 10^5 colony forming units, read after 18 hours at 37°C
Text: (§1) Biological testing of two of the compounds of the invention has provided the results shown below; the test compounds are identified by their Example Numbers: 1. Determination of Minimum Inhibitory Concentrations (MIC) Serial two-fold dilutions of freshly prepared test solutions were made into Oxoid No.l Nutrient agar with or without added enrichment and poured into petri […] Plates were inoculated with a multipoint inoculator with inoculum containing approximately 10^5 colony forming units of the organisms shown in the following Tables, all of which organisms are clinical isolates. The MIC, quoted in the Table as μg/ml, was read after 18 hours incubation at 37°C as the lowest concentration which inhibited growth.

E. cloacae 1321E = settings: Enterobacter cloacae, clinical isolate, Oxoid No.1 Nutrient agar, approximately 10^5 colony forming units, read after 18 hours at 37°C
Text: as §1

E. coli 851E = settings: Escherichia coli, clinical isolate, Oxoid No.1 Nutrient agar, approximately 10^5 colony forming units, read after 18 hours at 37°C
Text: as §1

H. influenzae 1184E = settings: Haemophilus influenzae, clinical isolate, Oxoid No.1 Nutrient agar, approximately 10^5 colony forming units, read after 18 hours at 37°C
Text: as §1

K. aerogenes 1522E = settings: Klebsiella aerogenes, clinical isolate, Oxoid No.1 Nutrient agar, approximately 10^5 colony forming units, read after 18 hours at 37°C
Text: as §1

Micrococcus Sp 1810E = settings: SP1810E, clinical isolate, Oxoid No.1 Nutrient agar, approximately 10^5 colony forming units, read after 18 hours at 37°C
Text: as §1

S. marcescens 1324E = settings: Serratia marcescens, clinical isolate, Oxoid No.1 Nutrient agar, approximately 10^5 colony forming units, read after 18 hours at 37°C
Text: as §1

Staph.aureus 853E = settings: Staphylococcus aureus, clinical isolate, Oxoid No.1 Nutrient agar, approximately 10^5 colony forming units, read after 18 hours at 37°C
Text: as §1

MIC (E. cloacae 1051E) [µg/mL] | MIC (E. cloacae 1321E) [µg/mL] | MIC (E. coli 851E) [µg/mL] | MIC (H. influenzae 1184E) [µg/mL] | MIC (K. aerogenes 1522E) [µg/mL] | MIC (Micrococcus Sp 1810E) [µg/mL] | MIC (S. marcescens 1324E) [µg/mL] | MIC (Staph.aureus 853E) [µg/mL] | SMILES
8 (≈ 37.3 µM) | 8 (≈ 37.3 µM) | 8 (≈ 37.3 µM) | 62 (≈ 289 µM) | 16 (≈ 74.7 µM) | 0.2 (≈ 0.934 µM) | 31 (≈ 145 µM) | 1 (≈ 4.67 µM) | NCCC1=C(C(=O)O)N2C(=O)CC2S1 (racemic) [Example 4, (5RS)-2-(2-Aminoethyl)pen-2-em-3-carboxylic acid]
16 (≈ 70.1 µM) | 8 (≈ 35 µM) | 8 (≈ 35 µM) | 16 (≈ 70.1 µM) | 16 (≈ 70.1 µM) | 0.1 (≈ 0.438 µM) | 31 (≈ 136 µM) | 0.5 (≈ 2.19 µM) | NCCCC1=C(C(=O)O)N2C(=O)CC2S1 (racemic) [Example 19, (5RS)-2-[3-Aminopropyl]-pen-2-em-3-carboxylate]
